# In patent US20230220047A1, “PEPTIDES FOR TREATMENT OF SEPSIS AND CANCER” (NORWEGIAN UNIVERSITY OF SCIENCE AND TECHNOLOGY (NTNU), priority 2020, published 2023):
# Columns and labels:
# [1] = system: ANBL-6 multiple myeloma cells; assay: CellTiter-Glo cell viability assay, ANBL-6; type: cell-based; conditions: for effect on proliferation of ANBL-6 cells: 15 μM; for anti-proliferative activity over a concentration series: 5, 10, 12.5, 15, 20 and 30 μM or 5, 10 and 20 μM, 48 h
# Description: Minor effects on the proliferation of the IH-1 and RPMI 8226 cell lines are seen. Cells were seeded at the level shown (left-hand bar of each set) then incubated in medium containing water, 10 μM penetratin or 10 μM P7-A4-Pen for 48 hr (except for INA-6 cells, which were incubated with 12.5 μM penetratin or 12.5 μM P7-A4-Pen). The number of viable cells was detected based on quantitation of ATP by luminescent signal in correlation to a standard curve prepared for each cell line. Results are based on 3-5 biological replicates for each condition, error bars show standard deviation of mean.
# Cells were seeded and then incubated in growth medium alone or supplemented with water, DMSO, 15 μM penetratin or 15 μM investigational peptide. The growth medium only and H2O—, DMSO- and penetratin-supplemented cultures constituted controls.
# The solid horizontal lines show the amount of cells originally seeded. In (A) ANBL-6 cells were seeded at a level of 10,000 cells/well, then incubated in medium supplemented with water, the control peptide C3A-Pen, P7-Pen, P7-A4-Pen, P7-N4-Pen or P7-K2-Pen for 48 hours. The peptides were included at concentrations of 5, 10, 12.5, 15, 20 or 30 μM. Cells were counted at 48 hours. In (B), ANBL-6 cells were seeded at a level of 5000 cells/well, then incubated in medium supplemented with water, P6-Pen, P-P6-Pen, P7-D4-Pen or P7-A4-Pen for 48 hours. Peptides were included at concentrations of 5, 10 or 20 μM. Cells were counted at 48 hours. […] Results are based on 3 biological replicates, error bars show standard deviation of mean.
# Multiple myeloma cells JJN-3 (DSMZ (Germany) no. ACC 541), ANBL-6 (Cellosaurus accession number CVCL_5425, obtained from Dr Diane Jelinek, Mayo Clinic, Rochester, Minn.), INA-6 (Cellosaurus accession number CVCL_5209, obtained from Dr M. Gramatzki, University of Erlangen-Nurnberg, Erlangen, Germany), RPMI-8226 (ATCC CCL-155), and IH-1 (Cellosaurus accession number CVCL_WZ44, established from the pleural effusion of a myeloma patient by Myeloma research group, IKOM, NTNU, Trondheim, Norway) were grown in RPMI-1640 (Sigma-Aldrich Norway, Oslo, Norway) supplemented with 100 nM penicillin/streptomycin and 10% FCS, and for ANBL-6, IH-1 and INA-6 cells 2 ng/ml recombinant IL-6 (Gibco, Thermo Fisher Scientific, Waltham, Mass., USA). Murine multiple myeloma Vk*MYC cells were obtained from M.D. Leif Bergsagel (Mayo Clinic, Richester, Minn., USA) and cultured in RPMI-1640 supplemented with 2% human serum (B^+, The blood bank, St Olav's Hospital, Trondheim, Norway), 100 nM penicillin/streptomycin, L-Glutamine (2 mM) and recombinant IL-6 (1 ng/ml). HEK293T (ATCC CRL-3216) were cultured in DMEM with 10% FCS. THP-1 TRAM knockout (KO) and TLR4 KO cell lines, and matching lentivirally transduced control cell lines, were differentiated in the same way as wild type (WT) THP-1. TRAM KO THP-1 cell line is described in Yurchenko et al. (supra).
# To evaluate the potential impact of the P7 peptide on proliferation of tumour cells of lymphoid origin, we performed a CellTiter-Glo Luminescent Cell Viability Assay to address proliferation of several multiple myeloma (MM) cell lines. For the assay, cells were incubated for 48 h in respective media containing either solvent (water), 10 μM control peptide (Pen) or the SLAMF1-derived peptide P7-A4-Pen for 48 h (FIG. 32) (with the exception of the INA-6 cells which were incubated with 12.5 μM control peptide or P7-A4-Pen). […] This effect could be mediated by P7-A4-Pen-induced inhibition of signalling pathways that are crucial for driving proliferation and/or survival of MM tumour cells.
# TLR4 [2] = assay: qPCR of TLR4-mediated cytokine expression in B6 immortalised murine macrophages; type: cell-based, mouse; conditions: 10 μM, 1 h pre-treatment, LPS 100 ng/ml
# Description: Cells were pre-treated with 10 μM peptides in cell culture media for 1 h, and stimulated with LPS (100 ng/ml) for increasing lengths of time.
# Immortalized bone-derived-macrophages (iBMDM) from wild type, Tram−/− or TIr4−/− C57BL/6 mice were maintained at 37° C. and 5% CO2 in DMEM supplemented with 10% FCS.
# (§1) Total RNA was isolated from the cells using Qiazol reagent #79306 from QIAGEN, and chloroform extraction followed by purification on RNeasy Mini columns with DNAse digestion (Qiagen). cDNA was prepared using the Maxima First Strand cDNA Synthesis Kit for quantitative real-time polymerase chain reaction (RT-qPCR) (Thermo Fisher Scientific) according to the manufacturer's protocol. qPCR was performed using the PerfeCTa qPCR FastMix (Quanta Biosciences) in replicates and cycled in a StepOnePlus™ Real-Time PCR cycler. The following TaqMan® Gene Expression Assays (Applied Biosystems®) were used: IFNβ (Hs01077958_s1), TNF (Hs00174128_m1), TBP (Hs00427620_m1), CXCL10 (Hs01124251_g1), IL-6 (Hs00174131_m1) and IL-1β (Hs01555410_m1), for human cells; Ifnβ (Mm00439552_s1), Tnf (Mm00443258_m1), Tbp (Mm01277042_m1) and II-1β (Mm00434228_m1), for mouse cells. No RT controls were negative. The level of TBP mRNA was used for normalisation and results presented as relative expression compared to the control untreated sample. Relative expression was calculated using Pfaffl's mathematical model (Pfaffl, Nucleic Acids Research 29(9): e45, 2001). Results are presented as the mean and SD expression fold change for biological replicates relative to non-stimulated cells. Statistical significance was evaluated in GraphPad Prizm 5.03. Data distribution was assumed to be normal but this was not formally tested. The difference between the two groups was determined by two-tailed t test.
# We proceeded with cellular assays to address the effect of peptide pre-treatment on TLR4-mediated cytokine expression in B6 immortalised murine macrophages (FIG. 13). Tested peptides had no cytotoxic effect on B6 murine macrophages (FIG. 13A).
# THP-1 cells = assay: LDH cytotoxicity assay in THP-1 cells; conditions: CPP screen, 15 μM, 30 min pre-treatment, LPS 100 ng/ml
# Description: For every assay, separate wells were seeded for the required controls (Spontaneous LDH Release Controls and Maximum LDH Release Control) with the same amount of cells as used for peptide treatments. All supernatants were analysed in triplicate with the average value of technical replicates taken into calculations.
# THP-1 cells were pre-treated with increasing concentrations of P7-Arg11 and control peptide Arg11 for 1 h (FIG. 3).
# TLR4 [3] = assay: Western blot of LPS signalling in THP-1 cells and primary human monocytes; type: cell-based; conditions: data not shown
# Description: (§2) Protein pellets were dissolved by heating protein pellets for 10 min at 95° C. in buffer containing 4 M urea, 1 SDS (Sigma) and NuPAGE® LDS Sample Buffer (4×) (Thermo Fisher Scientific). Otherwise, lysates were made using 1× RIPA lysis buffer (150 mM NaCl, 50 mM TrisHCl (pH 7.5), 1% Triton X100, 5 mM EDTA, protease inhibitors, phosphatase inhibitors). For Western blot analysis we used pre-cast protein gels NuPAGE™ Novex™ and iBlot Transfer Stacks iBlot Gel Transfer Device (Thermo Fisher Scientific). Proteins were transferred to the membrane by dry-blotting using iBlot® 2 NC Regular/Mini Stacks (Life Technologies) in the iBlot 2 Dry Blotting System (Life Technologies). After secondary antibody incubation, membranes were washed and incubated with HRP substrate solution (SuperSignal™ West Femto Maximum Sensitivity Substrate (Thermo Fisher Scientific)). Images were taken using Odyssey® Fc (LI-CORE). Quantification graphs were generated by the analysis of signal intensities for protein bands (protein of interest and endogenous loading control—β-tubulin from the same membrane) using Odyssey software (LI-CORE). Data were normalised to the expression levels of β-tubulin and presented as a relative fold change to the control sample.
# Further, we tested the effect of P7-Pen on phosphorylation of p38 MAPK, IκBα degradation and modification of IRAK1 in human macrophages (THP-1 cells) and primary human monocytes. P7-Pen inhibited LPS-mediated phosphorylation of p38 MAPK (FIG. 24A) and inhibited IRAK1 ubiquitination/phosphorylation (visualised as band shift to higher molecular weight) in primary monocytes (FIG. 24B).
# TLR4 [4] = assay: qPCR of LPS-mediated cytokine mRNA expression in THP-1 macrophages; type: cell-based, human
# Description: SW480 (ATCC CCL-228) and Jurkat (ATCC Clone E6-1; TIB-152) cells were cultured in RPMI 1640 (Sigma-Aldrich, Schnelldorf, Germany) supplemented with 10% heat-inactivated FCS, penicillin/streptomycin (Life Technologies) and 20 mM L-Glutamine. THP-1 cells (ATCC TIB-202) were cultured in RPMI-1640 (high-glucose, ATCC) supplemented with 10% heat inactivated foetal calf serum (FCS), 100 nM penicillin/streptomycin and 5 μM β-mercaptoethanol (Sigma). THP-1 cells were differentiated with 60 ng/ml phorbol 12-myristate 13-acetate (PMA, Sigma) for 72 h, followed by 24 or 48 h in medium without PMA.
# as §1
# STAT1 = assay: Western blot of STAT1 phosphorylation in LPS-stimulated THP-1 cells; type: cell-based, human; conditions: 15 μM, compared to control peptide
# Description: as §2
substance,measurement,setting,value
Ac-IKVYASVTLTGRQIKIWFQNRRMKWKK-NH2 [Peptide P7-K2-Pen],effect on proliferation of ANBL-6 cells,[1],anti-proliferative effect
same,anti-proliferative activity over a concentration series,[1],clear concentration-dependent effect
Ac-ITVDASVTLTGRQIKIWFQNRRMKWKK-NH2 [Peptide P7-D4-Pen],effect on proliferation of ANBL-6 cells,[1],anti-proliferative effect
same,anti-proliferative activity over a concentration series,[1],clear concentration-dependent effect
Ac-ITVYASVTLTGKLALKLALKALKAALKLA-NH2 [Peptide P7-KLA],"TLR4-mediated Ifnβ, Tnf and Il-1β mRNA expression",TLR4 [2],strongly inhibited
same,reduction of LPS-mediated toxicity (LDH assay),THP-1 cells,most effective
"Ac-ITVYASVTLTGRRRRRRR-NH2 [Peptide P7-Arg7, ITVYASVTLTGRRRRRRR]",reduction of LPS-mediated toxicity (LDH assay),THP-1 cells,some decrease
Ac-ITVYASVTLTGRRRRRRRRR-NH2 [Peptide P7-Arg9],reduction of LPS-mediated toxicity (LDH assay),THP-1 cells,some decrease
Ac-RRRRRRRRRRRGITVYASVTLT-NH2 [Arg11-P7],reduction of LPS-mediated toxicity (LDH assay),THP-1 cells,some decrease
"IATYASTALTGRQIKIWFQNRRMKWKK (Ac-IATYASTALTGRQIKIWFQNRRMKWKK-NH2) [Peptide P7C3-Pen, control peptide]",pattern of inhibition of p38 MAPK phosphorylation and IRAK1 modification as seen with P7-Pen,TLR4 [3],not
"IATYASTALTGRRRRRRRRRRR (Ac-IATYASTALTGRRRRRRRRRRR-NH2) [Peptide P7C3-Arg11, control/decoy peptide]","LPS- or E. coli particle-induced expression of IFNβ, CXCL10 and TNF",TLR4 [4]; control/decoy peptide (data not shown),no effect
"IATYASVTLTGRQIKIWFQNRRMKWKK (Ac-IATYASVTLTGRQIKIWFQNRRMKWKK-NH2) [Peptide P7C3A-Pen, control peptide]",anti-proliferative activity over a concentration series,[1],essentially no anti-proliferative effect
ITVSASVTLTGRQIKIWFQNRRMKWKK (Ac-ITVSASVTLTGRQIKIWFQNRRMKWKK-NH2) [Peptide P7-S4-Pen],effect on proliferation of ANBL-6 cells,[1],anti-proliferative effect
ITVYASVTATGRQIKIWFQNRRMKWKK (P7-A9-Pen) [Peptide P7-A9-Pen],pattern of inhibition of p38 MAPK phosphorylation and IRAK1 modification as seen with P7-Pen,TLR4 [3],inactive
TNSITVYASVTLTESGRRRRRRRRRRR (P3-Arg11) [Peptide P3-Arg11],LPS-mediated cytokine mRNA expression,TLR4 [4]; 15 μM,not effective
same,phosphorylation of STAT1 upon LPS stimulation,STAT1,no effect
